Assay results as given in ChEMBL document CHEMBL5329194, “Design, Synthesis, and Evaluation of 18F-Labeling CYP1B1 PET Tracer Based on 2-Phenylquinazolin” (Bioorg Med Chem Lett, 2023).

What was measured:
[1] = Drug accumulation in small intestine of KM mouse measured after 2 hrs; format: ADME, tissue-based; conditions: read-out: Drug uptake
[2] = Drug accumulation in blood of KM mouse measured after 2 hrs; format: ADME, tissue-based; conditions: read-out: Drug uptake
[3] = Drug accumulation in bone of KM mouse measured after 2 hrs; format: ADME, tissue-based, Bone element; conditions: read-out: Drug uptake
[4] = Drug accumulation in heart of KM mouse measured after 10 mins; format: ADME, tissue-based; conditions: in vivo
[5] = Drug accumulation in brain of KM mouse measured after 10 mins; format: ADME, tissue-based; conditions: read-out: Drug uptake
[6] = Drug accumulation in intestine of KM mouse measured after 30 mins; format: ADME, tissue-based; conditions: read-out: Drug uptake
[7] = Drug accumulation in liver of KM mouse measured after 10 mins; format: ADME, tissue-based; conditions: read-out: Drug uptake
[8] = Drug distribution in KM mouse liver xenografted with human HCT-116 cells measured after 1 hr; format: ADME, tissue-based; conditions: read-out: Drug uptake
[9] = Stability of compound in PBS assessed as compound remaining measure after 1 to 2 hrs; format: physicochemical; conditions: buffer; time 1-2 hrs
[10] = Stability of compound in mouse plasma assessed as compound remaining measured after 1 to 2 hrs; format: ADME, cell-free; conditions: time 1-2 hrs
[11] = Retention time of the compound; format: physicochemical
[12] = Drug uptake in mouse liver measured after 60 min; format: ADME, tissue-based; conditions: in vivo, 1 h
[13] = Drug uptake in mouse liver measured after 10 mins; format: ADME, tissue-based; conditions: in vivo
[14] = Lipophilicity, logP of compound; format: physicochemical; conditions: octanol/water
[15] = Drug uptake in human HCT-116 cells measured after 30 mins; format: ADME, cell-based; conditions: hct-116, 0.5 h
[16] = Drug uptake in human MCF7 cells measured after 1 hr; format: ADME, cell-based; conditions: mcf7, 1 h
[17] = Drug uptake in human HCT-15 cells measured after 1 hr; format: ADME, cell-based; conditions: hct-15, 1 h
[18] = Drug uptake in human HCT-116 cells at 10 nM measured after 30 min; format: ADME, cell-based; conditions: hct-116, 0.5 h, 0.01 µM
[19] = Drug uptake in human MCF7 cells measured after 30 mins in presence of 2-(4-bromophenyl)-4-(2-(2-(2-fluoroethoxy)ethoxy)ethoxy)quinazoline; format: ADME, cell-based; conditions: mcf7, 0.5 h
[20] = Drug uptake in human HCT-15 cells measured after 30 mins in presence of 2-(4-bromophenyl)-4-(2-(2-(2-fluoroethoxy)ethoxy)ethoxy)quinazoline; format: ADME, cell-based; conditions: hct-15, 0.5 h
[21] = Drug distribution in KM mouse tumor xenografted with HCT-116 cells measured after 1 hr; format: ADME, tissue-based, Neoplasm; conditions: read-out: Drug uptake
[22] = Drug distribution in KM mouse tumor xenografted with human HCT-116 cells measured after 1 hr block group; format: ADME, tissue-based, Neoplasm; conditions: read-out: Drug uptake
[23] = Drug distribution in KM mouse blood xenografted with human HCT-116 cells measured after 1 hr; format: ADME, tissue-based; conditions: read-out: Drug uptake
[24] = Drug distribution in KM mouse blood xenografted with human HCT-116 cells measured after 1 hr block group; format: ADME, tissue-based; conditions: read-out: Drug uptake
[25] = Drug distribution in KM mouse brain xenografted with human HCT-116 cells measured after 1 hr; format: ADME, tissue-based; conditions: read-out: Drug uptake
[26] = Drug distribution in KM mouse brain xenografted with human HCT-116 cells measured after 1 hr block group; format: ADME, tissue-based; conditions: read-out: Drug uptake
[27] = Drug distribution in KM mouse heart xenografted with human HCT-116 cells measured after 1 hr; format: ADME, tissue-based; conditions: read-out: Drug uptake
[28] = Drug distribution in KM mouse heart xenografted with human HCT-116 cells measured after 1 hr block group; format: ADME, tissue-based; conditions: read-out: Drug uptake
[29] = Drug distribution in KM mouse liver xenografted with human HCT-116 cells measured after 1 hr block group; format: ADME, tissue-based; conditions: read-out: Drug uptake
[30] = Drug distribution in KM mouse spleen xenografted with human HCT-116 cells measured after 1 hr; format: ADME, tissue-based; conditions: read-out: Drug uptake
[31] = Drug distribution in KM mouse spleen xenografted with human HCT-116 cells measured after 1 hr block group; format: ADME, tissue-based; conditions: read-out: Drug uptake
[32] = Drug distribution in KM mouse lung xenografted with human HCT-116 cells measured after 1 hr; format: ADME, tissue-based; conditions: read-out: Drug uptake
[33] = Drug distribution in KM mouse lung xenografted with human HCT-116 cells measured after 1 hr block group; format: ADME, tissue-based; conditions: read-out: Drug uptake
[34] = Drug distribution in KM mouse kidney xenografted with human HCT-116 cells measured after 1 hr; format: ADME, tissue-based; conditions: read-out: Drug uptake
[35] = Drug distribution in KM mouse kidney xenografted with human HCT-116 cells measured after 1 hr block group; format: ADME, tissue-based; conditions: read-out: Drug uptake
[36] = Drug distribution in KM mouse pancreas xenografted with human HCT-116 cells measured after 1 hr; format: ADME, tissue-based; conditions: read-out: Drug uptake
[37] = Drug distribution in KM mouse pancreas xenografted with human HCT-116 cells measured after 1 hr block group; format: ADME, tissue-based; conditions: read-out: Drug uptake
[38] = Drug distribution in KM mouse muscle xenografted with human HCT-116 cells measured after 1 hr; format: ADME, tissue-based, Muscle tissue; conditions: read-out: Drug uptake
[39] = Drug distribution in KM mouse muscle xenografted with human HCT-116 cells measured after 1 hr block group; format: ADME, tissue-based, Muscle tissue; conditions: read-out: Drug uptake
[40] = Drug distribution in KM mouse bone xenografted with human HCT-116 cells measured after 1 hr; format: ADME, tissue-based, Bone element; conditions: read-out: Drug uptake
[41] = Drug distribution in KM mouse bone xenografted with human HCT-116 cells measured after 1 hr block group; format: ADME, tissue-based, Bone element; conditions: read-out: Drug uptake
[42] = Drug distribution in KM mouse stomach xenografted with human HCT-116 cells measured after 1 hr; format: ADME, tissue-based; conditions: read-out: Drug uptake
[43] = Drug distribution in KM mouse stomach xenografted with human HCT-116 cells measured after 1 hr block group; format: ADME, tissue-based; conditions: read-out: Drug uptake
[44] = Drug distribution in KM mouse intestine xenografted with human HCT-116 cells measured after 1 hr; format: ADME, tissue-based; conditions: read-out: Drug uptake
[45] = Drug distribution in KM mouse intestine xenografted with human HCT-116 cells measured after 1 hrs block group; format: ADME, tissue-based; conditions: read-out: Drug uptake
[46] = Ratio of drug level in tumor to muscle in KM mouse xenografted with human HCT-116 cells measured after 1 hr; format: ADME, tissue-based
[47] = Ratio of drug level in tumor to muscle in KM mouse xenografted with human HCT-116 cells measured after 1 hr block group; format: ADME, tissue-based
[48] = Ratio of drug level in tumor to blood in KM mouse xenografted with human HCT-116 cells measured after 1 hr; format: ADME, tissue-based
[49] = Ratio of drug level in tumor to blood in KM mouse xenografted with human HCT-116 cells measured after 1 hr block group; format: ADME, tissue-based
[50] = Drug uptake in KM mouse liver xenografted with human HCT-116 cells measured after 40 to 60 mins by PET imaging based analysis; format: ADME, tissue-based; conditions: time 40-60 min
[51] = Drug uptake in KM mouse gastrointestinal tract xenografted with human HCT-116 cells measured after 40 to 60 mins by PET imaging based analysis; format: ADME, tissue-based; conditions: time 40-60 min
[52] = Drug uptake in KM mouse intestine xenografted with human HCT-116 cells measured after 80 mins by PET imaging based analysis; format: ADME, tissue-based; conditions: 1.333 h

In the case of `[18F]CCOCCOCCOc1nc(-c2ccc(Br)cc2)nc2ccccc12`, the tissue uptake at 2 h [1] is reported as 8.37 %ID/g, the tissue uptake at 2 h [2] is reported as 3.97 %ID/g and the tissue uptake at 2 h [3] is reported as 5.62 %ID/g. The Drug uptake [4] was “Active”, the tissue uptake at 10 min [5] was 7.94 %ID/g and the tissue uptake at 0.5 h [6] was 10.8 %ID/g. For the same compound, the tissue uptake at 10 min [7] was 10.2 %ID/g, the tissue uptake at 1 h [8] was 9.99 %ID/g and the Stability [9] was greater than 90%. For the same compound, the Stability [10] was greater than 90%, the Retention_time [11] was 2.97 min and the Drug uptake [12] was 37.63%. For the same compound, the Drug uptake [13] was 83.7%, the logP [14] was 3.88 and the Drug uptake [15] was 35.27%. The Drug uptake [16] was 25.26%, the Drug uptake [17] was 25.61% and the Drug uptake [18] was 23.64%. The Drug uptake [19] was 13.62%, the Drug uptake [20] was 18.35% and the tissue uptake at 1 h [21] was 4.76 %ID/g. The tissue uptake at 1 h [22] was 3.31 %ID/g, the tissue uptake at 1 h [23] was 4.15 %ID/g and the tissue uptake at 1 h [24] was 3.3 %ID/g. For the same compound, the tissue uptake at 1 h [25] was 7.34 %ID/g, the tissue uptake at 1 h [26] was 6.56 %ID/g and the tissue uptake at 1 h [27] was 6.4 %ID/g. The tissue uptake at 1 h [28] was 5.23 %ID/g, the tissue uptake at 1 h [29] was 9.5 %ID/g and the tissue uptake at 1 h [30] was 6.45 %ID/g. The tissue uptake at 1 h [31] was 5.62 %ID/g, the tissue uptake at 1 h [32] was 5.66 %ID/g and the tissue uptake at 1 h [33] was 5.42 %ID/g. It also gave a tissue uptake at 1 h [34] of 8.49 %ID/g, a tissue uptake at 1 h [35] of 7.65 %ID/g and a tissue uptake at 1 h [36] of 8.21 %ID/g. For the same compound, the tissue uptake at 1 h [37] was 7.53 %ID/g, the tissue uptake at 1 h [38] was 4.92 %ID/g and the tissue uptake at 1 h [39] was 4.2 %ID/g. For the same compound, the tissue uptake at 1 h [40] was 2.81 %ID/g, the tissue uptake at 1 h [41] was 2.44 %ID/g and the tissue uptake at 1 h [42] was 1.75 %ID/g. For the same compound, the tissue uptake at 1 h [43] was 1.6 %ID/g, the tissue uptake at 1 h [44] was 8.84 %ID/g and the tissue uptake at 1 h [45] was 7.1 %ID/g. The Ratio [46] was 0.98, the Ratio [47] was 0.79 and the Kp at 1 h [48] was 1.16. For the same compound, the Kp at 1 h [49] was 1.01, the Drug uptake [50] was “Active” and the Drug uptake [51] was “Active”. For the same compound, the Drug uptake [52] was “Active”.
